Results as given in ChEMBL document CHEMBL5291721, “A preclinical secondary pharmacology resource illuminates target-adverse drug reaction associations of marketed drugs” (Nat Commun, 2023).

Columns and labels:
Glucagon receptor = Glucagon receptor (Homo sapiens, UniProt P47871)
[1] = target: T1, Corticotropin-releasing factor receptor 2 (Homo sapiens, UniProt Q13324)
T1 sequence (Q13324 whole entry): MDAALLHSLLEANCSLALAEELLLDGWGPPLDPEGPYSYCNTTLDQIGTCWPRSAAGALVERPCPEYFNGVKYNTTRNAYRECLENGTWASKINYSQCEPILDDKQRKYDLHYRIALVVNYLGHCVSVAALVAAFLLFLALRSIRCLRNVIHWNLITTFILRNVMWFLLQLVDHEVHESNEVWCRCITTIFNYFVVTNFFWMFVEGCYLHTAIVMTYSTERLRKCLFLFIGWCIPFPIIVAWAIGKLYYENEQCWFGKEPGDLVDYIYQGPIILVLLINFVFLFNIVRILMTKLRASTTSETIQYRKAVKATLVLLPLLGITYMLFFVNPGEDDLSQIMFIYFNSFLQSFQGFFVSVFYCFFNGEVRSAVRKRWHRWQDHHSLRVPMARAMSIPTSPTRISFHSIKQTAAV

[2] = target: T2, Muscarinic acetylcholine receptor M2 (Homo sapiens, UniProt P08172)
T2 sequence (P08172 whole entry): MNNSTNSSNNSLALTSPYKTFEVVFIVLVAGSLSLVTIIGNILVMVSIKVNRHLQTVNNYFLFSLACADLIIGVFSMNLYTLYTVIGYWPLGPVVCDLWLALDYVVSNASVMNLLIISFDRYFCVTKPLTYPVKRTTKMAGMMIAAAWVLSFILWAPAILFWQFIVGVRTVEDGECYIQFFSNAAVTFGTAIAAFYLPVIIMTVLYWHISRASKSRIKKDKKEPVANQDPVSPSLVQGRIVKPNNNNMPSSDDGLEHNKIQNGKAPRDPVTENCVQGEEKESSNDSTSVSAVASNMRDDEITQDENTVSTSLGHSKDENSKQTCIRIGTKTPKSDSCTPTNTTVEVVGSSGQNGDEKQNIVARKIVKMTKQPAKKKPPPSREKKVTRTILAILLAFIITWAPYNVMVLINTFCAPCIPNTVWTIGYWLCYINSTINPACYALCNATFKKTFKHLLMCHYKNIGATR

[3] = target: T3, Neuropeptide Y receptor type 2 (Homo sapiens, UniProt P49146)
T3 sequence (P49146 whole entry): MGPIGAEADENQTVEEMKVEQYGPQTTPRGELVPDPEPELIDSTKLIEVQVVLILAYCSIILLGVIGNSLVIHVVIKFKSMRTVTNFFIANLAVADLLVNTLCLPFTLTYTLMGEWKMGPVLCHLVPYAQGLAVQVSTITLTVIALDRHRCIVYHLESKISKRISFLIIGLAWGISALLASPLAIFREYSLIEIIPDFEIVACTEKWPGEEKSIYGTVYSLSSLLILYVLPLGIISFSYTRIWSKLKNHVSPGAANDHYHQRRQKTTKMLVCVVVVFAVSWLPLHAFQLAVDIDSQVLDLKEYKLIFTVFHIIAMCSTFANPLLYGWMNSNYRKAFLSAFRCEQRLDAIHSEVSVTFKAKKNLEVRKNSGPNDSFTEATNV

Substance-P receptor = Substance-P receptor (Homo sapiens, UniProt P25103)
Histamine H2 receptor = Histamine H2 receptor (Homo sapiens, UniProt P25021)
[4] = target: T4, 5-hydroxytryptamine receptor 1A (Homo sapiens, UniProt P08908)
T4 sequence (P08908 whole entry): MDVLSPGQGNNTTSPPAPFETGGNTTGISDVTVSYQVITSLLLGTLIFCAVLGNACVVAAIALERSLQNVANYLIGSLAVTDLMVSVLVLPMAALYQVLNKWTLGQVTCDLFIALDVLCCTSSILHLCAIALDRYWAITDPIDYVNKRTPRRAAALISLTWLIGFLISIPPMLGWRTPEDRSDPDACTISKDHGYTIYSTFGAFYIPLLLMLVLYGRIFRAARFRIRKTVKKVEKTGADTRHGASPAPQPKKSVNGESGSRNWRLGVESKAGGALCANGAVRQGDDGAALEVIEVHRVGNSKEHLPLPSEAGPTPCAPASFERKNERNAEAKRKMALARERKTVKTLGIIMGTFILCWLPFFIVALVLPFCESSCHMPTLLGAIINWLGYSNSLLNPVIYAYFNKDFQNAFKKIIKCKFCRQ

D(4) dopamine receptor = target: T5, D(4) dopamine receptor (Homo sapiens, UniProt P21917)
T5 sequence (P21917 whole entry): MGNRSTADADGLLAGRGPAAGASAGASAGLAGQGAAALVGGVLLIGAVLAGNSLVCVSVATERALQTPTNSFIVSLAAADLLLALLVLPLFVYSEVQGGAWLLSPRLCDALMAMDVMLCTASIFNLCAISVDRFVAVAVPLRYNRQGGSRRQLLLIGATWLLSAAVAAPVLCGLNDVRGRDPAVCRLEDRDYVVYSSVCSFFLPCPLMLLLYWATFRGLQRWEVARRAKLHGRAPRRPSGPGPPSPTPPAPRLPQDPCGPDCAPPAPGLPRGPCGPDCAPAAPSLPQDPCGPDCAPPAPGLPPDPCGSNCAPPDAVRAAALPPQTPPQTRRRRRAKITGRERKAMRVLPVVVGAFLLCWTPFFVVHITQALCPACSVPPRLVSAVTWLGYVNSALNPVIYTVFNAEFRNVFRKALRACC

[5] = target: Gamma-aminobutyric acid receptor subunit alpha-1/alpha-2/beta-2/gamma-2 (Homo sapiens, UniProt P14867+P18507+P47869+P47870); type: functional, cell-based
[6] = target: T6, Peroxisome proliferator-activated receptor gamma (Homo sapiens, UniProt P37231); type: functional
T6 sequence (P37231 whole entry): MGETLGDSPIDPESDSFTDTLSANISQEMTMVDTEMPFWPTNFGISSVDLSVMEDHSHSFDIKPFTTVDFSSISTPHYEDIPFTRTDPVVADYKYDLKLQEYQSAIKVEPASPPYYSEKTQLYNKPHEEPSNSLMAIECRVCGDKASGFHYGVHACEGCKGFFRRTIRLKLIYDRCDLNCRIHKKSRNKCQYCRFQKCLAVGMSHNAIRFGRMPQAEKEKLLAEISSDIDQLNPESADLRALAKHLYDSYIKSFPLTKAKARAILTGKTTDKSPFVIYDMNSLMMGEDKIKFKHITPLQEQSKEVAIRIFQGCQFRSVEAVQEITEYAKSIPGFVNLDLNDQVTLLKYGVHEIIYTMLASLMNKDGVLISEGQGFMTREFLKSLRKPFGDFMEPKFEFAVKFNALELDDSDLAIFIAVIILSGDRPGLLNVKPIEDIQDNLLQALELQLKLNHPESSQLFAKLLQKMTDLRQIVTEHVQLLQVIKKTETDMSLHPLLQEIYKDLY
Note: assay procedure not described here.

Chain of Histamine H2 receptor (P25021 whole entry): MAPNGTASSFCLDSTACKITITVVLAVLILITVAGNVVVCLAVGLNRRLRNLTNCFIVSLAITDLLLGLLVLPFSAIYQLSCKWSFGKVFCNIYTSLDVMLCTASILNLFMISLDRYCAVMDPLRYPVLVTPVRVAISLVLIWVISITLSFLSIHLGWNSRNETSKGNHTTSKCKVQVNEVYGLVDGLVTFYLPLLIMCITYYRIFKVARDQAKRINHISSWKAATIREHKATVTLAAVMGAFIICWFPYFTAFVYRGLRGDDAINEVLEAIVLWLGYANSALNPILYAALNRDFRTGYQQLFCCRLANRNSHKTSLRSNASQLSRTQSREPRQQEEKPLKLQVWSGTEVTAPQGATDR
Chain of Substance-P receptor (P25103 whole entry): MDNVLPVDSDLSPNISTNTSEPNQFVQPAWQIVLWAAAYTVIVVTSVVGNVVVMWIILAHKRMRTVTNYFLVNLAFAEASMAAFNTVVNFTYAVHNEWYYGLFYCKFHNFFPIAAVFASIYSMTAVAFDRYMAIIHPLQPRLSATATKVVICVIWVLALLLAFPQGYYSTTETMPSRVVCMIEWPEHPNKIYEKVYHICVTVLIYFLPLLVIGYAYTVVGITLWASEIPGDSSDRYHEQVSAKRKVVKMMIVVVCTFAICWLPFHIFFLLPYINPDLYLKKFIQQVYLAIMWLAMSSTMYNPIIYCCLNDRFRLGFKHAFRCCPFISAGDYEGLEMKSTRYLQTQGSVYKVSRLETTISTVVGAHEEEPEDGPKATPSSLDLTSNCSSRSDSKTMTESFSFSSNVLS
Chain of Glucagon receptor (P47871 whole entry): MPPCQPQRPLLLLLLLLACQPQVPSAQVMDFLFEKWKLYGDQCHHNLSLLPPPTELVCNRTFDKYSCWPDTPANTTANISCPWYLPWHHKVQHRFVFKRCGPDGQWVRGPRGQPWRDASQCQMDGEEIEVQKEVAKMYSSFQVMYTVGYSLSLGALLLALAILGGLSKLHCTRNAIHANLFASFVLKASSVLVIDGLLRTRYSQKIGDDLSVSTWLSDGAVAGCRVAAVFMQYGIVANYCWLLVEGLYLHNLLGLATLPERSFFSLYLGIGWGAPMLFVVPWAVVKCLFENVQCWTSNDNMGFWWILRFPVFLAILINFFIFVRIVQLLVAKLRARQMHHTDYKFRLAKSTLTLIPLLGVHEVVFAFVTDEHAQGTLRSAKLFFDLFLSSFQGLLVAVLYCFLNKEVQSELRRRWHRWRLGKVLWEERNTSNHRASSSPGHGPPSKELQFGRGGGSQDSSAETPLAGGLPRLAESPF
Chain of Gamma-aminobutyric acid receptor subunit alpha-1/alpha-2/beta-2/gamma-2 (P14867 whole entry): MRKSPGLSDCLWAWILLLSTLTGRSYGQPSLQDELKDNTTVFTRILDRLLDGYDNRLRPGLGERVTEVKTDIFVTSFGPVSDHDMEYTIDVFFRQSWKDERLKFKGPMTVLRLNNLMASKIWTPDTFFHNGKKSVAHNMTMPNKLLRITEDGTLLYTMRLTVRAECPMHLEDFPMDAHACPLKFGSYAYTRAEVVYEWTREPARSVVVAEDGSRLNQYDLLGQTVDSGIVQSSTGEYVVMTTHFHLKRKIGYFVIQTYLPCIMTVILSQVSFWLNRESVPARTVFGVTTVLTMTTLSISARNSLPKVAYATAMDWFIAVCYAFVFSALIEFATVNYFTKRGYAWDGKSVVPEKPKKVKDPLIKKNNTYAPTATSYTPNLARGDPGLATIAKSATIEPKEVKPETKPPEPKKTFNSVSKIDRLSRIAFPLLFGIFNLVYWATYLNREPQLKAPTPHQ
Chain of Gamma-aminobutyric acid receptor subunit alpha-1/alpha-2/beta-2/gamma-2 (P47870 whole entry): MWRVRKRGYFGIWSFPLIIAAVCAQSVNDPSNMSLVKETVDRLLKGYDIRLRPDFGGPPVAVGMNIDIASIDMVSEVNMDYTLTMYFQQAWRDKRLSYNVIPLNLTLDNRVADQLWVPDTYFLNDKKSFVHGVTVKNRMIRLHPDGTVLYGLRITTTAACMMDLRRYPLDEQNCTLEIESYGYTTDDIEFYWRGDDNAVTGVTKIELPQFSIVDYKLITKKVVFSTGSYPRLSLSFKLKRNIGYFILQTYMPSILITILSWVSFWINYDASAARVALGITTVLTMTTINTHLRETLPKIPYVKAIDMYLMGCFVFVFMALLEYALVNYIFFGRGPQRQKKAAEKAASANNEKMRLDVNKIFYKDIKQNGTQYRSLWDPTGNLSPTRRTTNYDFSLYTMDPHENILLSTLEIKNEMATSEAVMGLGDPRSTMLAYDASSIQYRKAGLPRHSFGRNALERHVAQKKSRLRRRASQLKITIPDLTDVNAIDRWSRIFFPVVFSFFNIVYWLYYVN
Chain of Gamma-aminobutyric acid receptor subunit alpha-1/alpha-2/beta-2/gamma-2 (P18507 whole entry): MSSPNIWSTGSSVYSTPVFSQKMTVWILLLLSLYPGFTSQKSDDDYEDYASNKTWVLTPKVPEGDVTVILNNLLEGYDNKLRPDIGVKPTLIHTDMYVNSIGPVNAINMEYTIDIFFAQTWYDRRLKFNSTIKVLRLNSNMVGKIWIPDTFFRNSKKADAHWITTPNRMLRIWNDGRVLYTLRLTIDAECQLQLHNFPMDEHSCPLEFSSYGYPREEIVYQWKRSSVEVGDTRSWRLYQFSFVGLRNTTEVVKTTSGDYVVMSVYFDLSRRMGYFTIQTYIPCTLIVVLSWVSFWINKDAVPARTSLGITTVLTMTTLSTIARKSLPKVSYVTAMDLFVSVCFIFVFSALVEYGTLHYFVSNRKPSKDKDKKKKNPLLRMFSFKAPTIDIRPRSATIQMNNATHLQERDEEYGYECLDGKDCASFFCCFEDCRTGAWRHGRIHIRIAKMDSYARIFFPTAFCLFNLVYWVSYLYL
Chain of Gamma-aminobutyric acid receptor subunit alpha-1/alpha-2/beta-2/gamma-2 (P47869 whole entry): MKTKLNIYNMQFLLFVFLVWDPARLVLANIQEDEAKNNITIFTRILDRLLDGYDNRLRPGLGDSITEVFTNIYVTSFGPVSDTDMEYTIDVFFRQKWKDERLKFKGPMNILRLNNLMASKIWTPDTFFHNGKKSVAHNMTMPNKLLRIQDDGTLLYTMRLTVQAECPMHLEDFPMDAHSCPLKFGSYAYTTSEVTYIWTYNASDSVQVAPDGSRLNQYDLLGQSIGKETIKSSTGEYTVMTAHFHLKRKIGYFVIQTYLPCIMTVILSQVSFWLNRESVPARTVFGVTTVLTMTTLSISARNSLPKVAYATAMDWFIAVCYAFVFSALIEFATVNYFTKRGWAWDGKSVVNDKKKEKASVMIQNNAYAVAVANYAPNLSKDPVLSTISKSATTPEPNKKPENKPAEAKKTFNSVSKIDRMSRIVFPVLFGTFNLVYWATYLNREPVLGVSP

| SMILES | AC50 (Glucagon receptor) [µM] | AC50 [1] [µM] | AC50 [2] [µM] | AC50 [3] [µM] | AC50 (Substance-P receptor) [µM] | AC50 (Histamine H2 receptor) [µM] | AC50 [4] [µM] | AC50 (D(4) dopamine receptor) [µM] | AC50 [5] [µM] | AC50 [6] [µM] |
| --- | --- | --- | --- | --- | --- | --- | --- | --- | --- | --- |
| CCOC(=O)[C@H](CCc1ccccc1)N[C@@H](C)C(=O)N1CCC[C@H]1C(=O)O | > 30 | > 30 | > 10 | > 30 | > 10 | > 10 | > 10 | > 10 |  |  |
| Nc1nc(N)c2nc(-c3ccccc3)c(N)nc2n1 | > 30 | > 30 | > 10 | > 30 | > 10 | > 10 | > 10 | > 10 |  |  |
| C[C@H]1O[C@H](O[C@H]2[C@H](O)[C@@H](O)[C@@H](O[C@H]3[C@H](O)[C@@H](O)C(O)O[C@@H]3CO)O[C@@H]2CO)[C@H](O)[C@@H](O)[C@@H]1N[C@H]1C=C(CO)[C@@H](O)[C@H](O)[C@H]1O (stereo not given in full) [ACARBOSE] | > 30 | > 30 | > 10 | > 30 | > 10 | > 10 | > 10 | > 10 |  |  |
| Oc1ncnc2[nH]ncc12 [ALLOPURINOL] | > 30 | > 30 | > 10 | > 30 | > 10 | > 10 | > 10 | > 10 |  |  |
| CC(C)NCC(O)COc1ccc(COCCOC(C)C)cc1 (stereo not given) [BISOPROLOL] | > 30 | > 30 | > 10 | > 30 | > 10 | > 10 | > 10 | > 10 |  |  |
| COc1cc(Nc2c(C#N)cnc3cc(OCCCN4CCN(C)CC4)c(OC)cc23)c(Cl)cc1Cl [BOSUTINIB] | > 30 | > 30 | 6.04 | > 30 | 8 |  | > 10 | > 10 |  |  |
| CCC[C@@H]1C[C@@H](C(=O)N[C@@H]([C@H]2O[C@H](SC)[C@H](O)[C@@H](O)[C@H]2O)[C@H](C)Cl)N(C)C1 [CLINDAMYCIN] | > 30 | > 30 | > 10 | > 30 | > 10 | > 10 | > 10 | > 10 |  |  |
| CN(C)CCCN1c2ccccc2CCc2ccc(Cl)cc21 [CLOMIPRAMINE] |  |  |  |  |  |  | > 10 |  |  |  |
| CC(=O)OCC(=O)[C@@]1(O)CC[C@H]2[C@@H]3CCC4=CC(=O)CC[C@]4(C)[C@H]3C(=O)C[C@@]21C [CORTISONE ACETATE] |  |  |  |  |  |  |  |  | > 30 |  |
| CN(CCOc1ccc(NS(C)(=O)=O)cc1)CCc1ccc(NS(C)(=O)=O)cc1 [DOFETILIDE] | > 30 | > 30 | > 10 | > 30 | > 10 | > 10 | > 10 | > 10 |  |  |
| COc1cc2c(cc1OC)C(=O)C(CC1CCN(Cc3ccccc3)CC1)C2 (stereo not given) [DONEPEZIL] | > 30 | > 30 |  | > 30 | > 10 | > 10 |  | 0.824 |  |  |
| C#C[C@]1(O)CC[C@H]2[C@@H]3CCc4cc(O)ccc4[C@H]3CC[C@@]21C [ETHINYL ESTRADIOL] | > 30 | > 30 | > 10 | > 30 | > 10 | > 10 | > 10 | > 10 |  |  |
| NC(N)=Nc1nc(CSCCC(N)=NS(N)(=O)=O)cs1 [FAMOTIDINE] | > 30 | > 30 | > 10 | > 30 | > 10 | 0.0063 | > 10 | > 10 |  |  |
| NS(=O)(=O)c1cc2c(cc1Cl)NCNS2(=O)=O [HYDROCHLOROTHIAZIDE] | > 30 | > 30 | > 10 | > 30 | > 10 | > 10 | > 10 | > 10 |  |  |
| CCN(CC)CCNC(=O)c1cc(Cl)c(N)cc1OC [METOCLOPRAMIDE] | > 30 | > 30 |  | > 30 | > 10 | > 10 | > 10 | 1.16 |  |  |
| Cc1cccc(C)c1OCC(C)N (stereo not given) [MEXILETINE] |  |  |  |  |  |  |  |  |  | > 30 |
| CCc1nn(CCCN2CCN(c3cccc(Cl)c3)CC2)c(=O)n1CCOc1ccccc1 [NEFAZODONE] | > 30 | > 30 |  | > 30 | 2.45 |  | 0.254 | 0.271 |  |  |
| NC1=NC(=O)C(c2ccccc2)O1 (stereo not given) [PEMOLINE] |  |  |  |  |  |  | > 10 |  |  |  |
| CCc1ccc(CCOc2ccc(CC3SC(=O)NC3=O)cc2)nc1 (stereo not given) [PIOGLITAZONE] | > 30 | > 30 |  | > 30 | > 10 | > 10 | > 10 | > 10 |  |  |
| CC(C(=O)O)c1ccc(N2CC=CC2)c(Cl)c1 (stereo not given) [PIRPROFEN] | > 30 | > 30 | > 10 | > 30 | > 10 | > 10 | > 10 | > 10 |  |  |
| NC(=O)c1cnccn1 [PYRAZINAMIDE] | > 30 | > 30 |  | > 30 |  | > 10 | > 10 | > 10 |  |  |
| O=C(NC[C@H]1CN(c2ccc(N3CCOCC3=O)cc2)C(=O)O1)c1ccc(Cl)s1 [RIVAROXABAN] |  |  |  |  |  |  |  |  | > 30 |  |
| O=C(CCCCCCC(=O)Nc1ccccc1)NO [VORINOSTAT] | > 10 |  | > 10 | > 10 | > 10 | > 10 | > 10 | > 10 | > 30 |  |
